From patent publication US12630492B2, “Cannabinoid derivatives” (CANOPY GROWTH CORPORATION, priority 2019, dated 2026) come the findings set out here.

One test has as its target T1, human CB1 receptor (Homo sapiens, UniProt P21554).
T1 construct: host or cells: CHO-K1 (Chinese hamster ovary) cells, stably transfected; membranes prepared in house
The test is described as follows: CB1 radioligand competitive binding assay ([3H]CP 55,940 displacement).

In another test the target is T2, human CB2 receptor (Homo sapiens, UniProt P34972).
T2 construct: host or cells: CHO-K1 (Chinese hamster ovary) cells, stably transfected; membranes prepared in house
Kind of test: CB2 radioligand competitive binding assay ([3H]CP 55,940 displacement). As to conditions: for Selectivity CB2: fold difference between CB1 and CB2 binding, printed in column of receptor with higher affinity, 1.00 in both = same affinity.

Setting [1] is: [3H]CP 55,940 displacement, membranes of CHO-K1 cells expressing human CB1 receptor, read-out: CB1 IC50.
Where [2] appears, read: [3H]CP 55,940 displacement, membranes of CHO-K1 cells expressing human CB2 receptor, read-out: CB2 IC50.

Like-named read-outs stand apart in the source and are kept apart here.

T2 sequence (P34972 whole entry): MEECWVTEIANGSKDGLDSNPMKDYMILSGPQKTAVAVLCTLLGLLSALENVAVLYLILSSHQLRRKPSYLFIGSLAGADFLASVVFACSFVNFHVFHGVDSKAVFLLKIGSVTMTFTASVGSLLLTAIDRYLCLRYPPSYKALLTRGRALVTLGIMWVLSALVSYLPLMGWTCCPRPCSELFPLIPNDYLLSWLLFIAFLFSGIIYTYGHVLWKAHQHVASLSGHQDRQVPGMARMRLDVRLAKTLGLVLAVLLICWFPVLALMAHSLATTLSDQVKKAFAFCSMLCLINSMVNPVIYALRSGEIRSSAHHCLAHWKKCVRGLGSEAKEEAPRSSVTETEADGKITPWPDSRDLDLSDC
T1 sequence (P21554 whole entry): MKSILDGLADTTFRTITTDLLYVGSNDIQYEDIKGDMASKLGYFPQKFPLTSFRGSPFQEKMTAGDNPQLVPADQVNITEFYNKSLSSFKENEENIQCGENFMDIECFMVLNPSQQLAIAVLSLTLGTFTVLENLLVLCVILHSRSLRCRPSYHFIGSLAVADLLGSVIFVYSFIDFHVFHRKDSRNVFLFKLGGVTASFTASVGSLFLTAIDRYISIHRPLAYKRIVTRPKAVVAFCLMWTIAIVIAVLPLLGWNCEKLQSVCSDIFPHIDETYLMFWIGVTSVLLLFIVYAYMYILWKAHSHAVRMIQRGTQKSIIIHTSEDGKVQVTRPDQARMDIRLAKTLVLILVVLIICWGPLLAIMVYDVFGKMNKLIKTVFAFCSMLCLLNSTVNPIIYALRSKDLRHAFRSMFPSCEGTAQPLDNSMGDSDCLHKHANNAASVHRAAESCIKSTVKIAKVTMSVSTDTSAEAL

Take `C=C(C)C1CCC(C)=CC1c1c(OCOCC)cc(C(C)(C)CCCCCC)cc1OCOCC` (stereo not shown) [19′d, 2′,6′-bis(ethoxymethoxy)-5-methyl-4′-(2-methyloctan-2-yl)-2-(prop-1-en-2-yl)-1,2,3,4-tetrahydro-1,1′-biphenyl]: the IC50 at human CB1 receptor (setting [1]) and at human CB2 receptor (setting [2]) was 1000 to 9990 nM in each case. Also, on human CB2 receptor, the “Selectivity CB2” value is reported as 2.00.
For `CCCCCc1cc(OCN(C(=O)OC)c2ccccc2)c(-c2cccc(C)c2)c(OCN(C(=O)OC)c2ccccc2)c1` [14′a, dimethyl (((3′-methyl-4-pentyl-[1,1′-biphenyl]-2,6-diyl)bis(oxy))bis(methylene))bis(phenylcarbamate)], the IC50 on human CB1 receptor (setting [1]) and on human CB2 receptor (setting [2]) was 50 to 990 nM throughout. The “Selectivity CB2” value on human CB2 receptor turned out to be 4.40.
For the molecule `CCCCCc1cc(O)c(-c2cccc(C)c2)c(OCOC(=O)C(C)(C)C)c1` [Compound 8a, [3-hydroxy-2-(m-tolyl)-5-pentyl-phenoxy]methyl 2,2-dimethylpropanoate], the IC50 at human CB1 receptor (setting [1]) is 50 to 990 nM; on human CB2 receptor (setting [2]), less than 50 nM. In addition, the “Selectivity CB2” value on human CB2 receptor is 9.39.
For the molecule `C=C(C)C1CCC(C)=CC1c1c(O)cc(C(C)(C)CCCCCC)cc1OCOCC` (stereo not shown) [Compound 19d, 6-(ethoxymethoxy)-5′-methyl-4-(2-methyloctan-2-yl)-2′-(prop-1-en-2-yl)-1′,2′,3′,4′-tetrahydro-[1,1′-biphenyl]-2-ol], the IC50 at human CB1 receptor (setting [1]) and on human CB2 receptor (setting [2]) was 50 to 990 nM each time. Also, on human CB2 receptor, the “Selectivity CB2” value is 1.83.
Turning to `CCCCCc1cc(O)c(-c2cccc(C)c2)c(OCOC(=O)OCC)c1` [Compound 5a, ethyl [3-hydroxy-2-(m-tolyl)-5-pentyl-phenoxy]methyl carbonate], on human CB1 receptor, the IC50 lay in the range of 1000 to 9990 nM. Further, on human CB2 receptor, the IC50 is 50 to 990 nM and the “Selectivity CB2” value stood at 7.89.
In the case of `CCCCCc1cc(O)c(-c2cccc(C)c2)c(OCN(C(=O)OC)c2ccccc2)c1` [Compound 14a, methyl (((6-hydroxy-3′-methyl-4-pentyl-[1,1′-biphenyl]-2-yl)oxy)methyl)(phenyl)carbamate], the IC50 fell in the range of 1000 to 9990 nM at human CB1 receptor (setting [1]) and 50 to 990 nM on human CB2 receptor (setting [2]). For the same molecule, the “Selectivity CB2” value at human CB2 receptor amounted to 9.84.
On to `CCCCCc1cc(O)c(-c2cccc(C)c2)c(OCOCCOC)c1` [Compound 2a, 6-((2-methoxyethoxy)methoxy)-3′-methyl-4-pentyl-[1,1′-biphenyl]-2-ol], for which the IC50 on human CB1 receptor (setting [1]) is 1000 to 9990 nM; at human CB2 receptor (setting [2]), 50 to 990 nM. In addition, the “Selectivity CB2” value on human CB2 receptor turned out to be 11.11.
In the case of `CCCCCc1cc(OCOC(=O)C(C)(C)C)c(-c2cccc(C)c2)c(OCOC(=O)C(C)(C)C)c1` [8′a, [3-(2,2-dimethylpropanoyloxymethoxy)-2-(m-tolyl)-5-pentyl-phenoxy]methyl 2,2-dimethylpropanoate], the IC50 at human CB1 receptor (setting [1]) and at human CB2 receptor (setting [2]) was 50 to 990 nM in each case. Besides, on human CB2 receptor, the “Selectivity CB2” value is listed as 7.14.
In the case of `C=C(C)C1CCC(C)=CC1c1c(OCOC(=O)C(C)(C)C)cc(C(C)(C)CCCCCC)cc1OCOC(=O)C(C)(C)C` (stereo not shown) [21′d, ((5′-methyl-4-(2-methyloctan-2-yl)-2′-(prop-1-en-2-yl)-1′,2′,3′,4′-tetrahydro-[1,1′-biphenyl]-2,6-diyl)bis(oxy))bis(methylene) bis(2,2-dimethylpropanoate)], the 50% inhibitory concentration (IC50) is more than 10000 nM on human CB1 receptor (setting [1]) and 1000 to 9990 nM at human CB2 receptor (setting [2]). In addition, the “Selectivity CB2” value on human CB2 receptor came out at 13.33.
With `C=C(C)C1CCC(C)=CC1c1c(OCOC2CCCCC2)cc(CCCCC)cc1OCOC1CCCCC1` (stereo not shown) [18′d, 2′,6′-bis((cyclohexyloxy)methoxy)-5-methyl-4′-pentyl-2-(prop-1-en-2-yl)-1,2,3,4-tetrahydro-1,1′-biphenyl], the IC50 on human CB1 receptor (setting [1]) and on human CB2 receptor (setting [2]) was more than 10000 nM throughout. In addition, on human CB1 receptor (fold difference between CB1 and CB2 binding, printed in column of receptor with higher affinity, 1.00 in both = same affinity), the “Selectivity CB1” value is 1.00. For the same molecule, the “Selectivity CB2” value at human CB2 receptor is recorded as 1.00.
For the molecule `CCCCCc1cc(OCN(C(=O)OC)c2ccccc2)c(C2C=C(C)CCC2)c(OCN(C(=O)OC)c2ccccc2)c1` (stereo not shown) [14′c, dimethyl (((5′-methyl-4-pentyl-1′,2′,3′,4′-tetrahydro-[1,1′-biphenyl]-2,6-diyl)bis(oxy))bis(methylene))bis(phenylcarbamate)], the figures for the IC50 on human CB1 receptor (setting [1]) and at human CB2 receptor (setting [2]) were 1000 to 9990 nM and 50 to 990 nM, respectively. The “Selectivity CB2” value on human CB2 receptor is on record as 62.50.

A word on the IC50: it is the point on the concentration scale where inhibition reaches its midpoint.
